± gives the standard deviation of the averaged measurements.
Legend:
Danio rerio embryo [1] = assay: EC20 Yolk sac size_Decrease; higher = less potent; details: exposure time: 4 dpf
Procedure: (§1)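 Zebrafish embryos (UFZ-OBI strain) were exposed from 2 hpf for 48 h (2 dpf) or 96 h (4 dpf) at 28 °C; spontaneous tail coiling was scored at 25 hpf. Morphological features from automated image analysis (FishInspector), heart rate and locomotor response were fitted with drc models. Quantal endpoints were dichotomised at 2.5 SD from controls and fitted with a log-logistic model; heart rate, pigmentation and STC were normalised to the replicate control mean. Betamethasone was tested as betamethasone dipropionate, diflorasone as diflorasone diacetate.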

Danio rerio embryo [2] = assay: EC10 Lack of SB; higher = less potent; details: exposure time: 4 dpf
Procedure: as §1

Danio rerio embryo [3] = assay: EC50 Bladder size_Decrease; details: exposure time: 4 dpf
Procedure: as §1

Danio rerio embryo [4] = assay: EC10 Any effect; higher = less potent
Procedure: as §1

Danio rerio embryo [5] = tested on: Danio rerio embryo
Procedure: as §1

Danio rerio embryo [6] = assay: EC20 Lack of SB; higher = less potent; details: exposure time: 4 dpf
Procedure: as §1

Danio rerio embryo [7] = assay: EC20 Any effect; higher = less potent
Procedure: as §1

Danio rerio embryo [8] = assay: EC50 Pericard size_Increase; details: exposure time: 4 dpf
Procedure: as §1

Danio rerio embryo [9] = assay: EC10 Pericard size_Increase; higher = less potent; details: exposure time: 4 dpf
Procedure: as §1

Danio rerio embryo [10] = assay: EC10 Yolk sac size_Decrease; higher = less potent; details: exposure time: 4 dpf
Procedure: as §1

Danio rerio embryo [11] = assay: spontaneous tail coiling frequency (coils/min/embryo); higher = more spontaneous movement; details: 25 hpf
Procedure: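 Spontaneous tail coilings of zebrafish embryos exposed from 2 hpf were recorded at 24-25 hpf in 1-min videos and detected by a KNIME workflow from grey-value variance. Betamethasone was tested as the dipropionate, diflorasone as the diacetate.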

Danio rerio embryo [12] = assay: EC10 Bladder size_Decrease; higher = less potent; details: exposure time: 4 dpf
Procedure: as §1

Danio rerio embryo [13] = assay: EC20 Pericard size_Increase; higher = less potent; details: exposure time: 4 dpf
Procedure: as §1

Danio rerio embryo [14] = assay: EC50 Yolk sac size_Decrease; details: exposure time: 4 dpf
Procedure: as §1

Danio rerio embryo [15] = details: exposure time: 4 dpf
Procedure: as §1

Danio rerio embryo [16] = assay: EC20 Bladder size_Decrease; higher = less potent; details: exposure time: 4 dpf
Procedure: as §1

Danio rerio embryo [17] = assay: EC20 LMR ligth decrease; higher = less potent; details: exposure time: 4 dpf
Procedure: as §1

Danio rerio embryo [18] = assay: EC20 Curvature_Increase; higher = less potent
Procedure: as §1

Danio rerio embryo [19] = assay: EC20 Body length_Decrease; higher = less potent
Procedure: as §1

Danio rerio embryo [20] = assay: EC10 STC bell shape; higher = less potent; details: exposure time: 25 h
Procedure: as §1

Danio rerio embryo [21] = assay: EC20 Otolith-eye distance_Decrease; higher = less potent; details: exposure time: 4 dpf
Procedure: as §1

Danio rerio embryo [22] = assay: EC20 STC bell shape; higher = less potent; details: exposure time: 25 h
Procedure: as §1

Danio rerio embryo [23] = tested on: Danio rerio embryo; remark: listed apart in the source
Procedure: as §1

Danio rerio embryo [24] = assay: EC50 Curvature_Increase
Procedure: as §1

Danio rerio embryo [25] = assay: EC50 Body length_Decrease
Procedure: as §1

Danio rerio embryo [26] = assay: EC10 Eye size_Decrease; higher = less potent
Procedure: as §1

Danio rerio embryo [27] = assay: EC10 Curvature_Increase; higher = less potent
Procedure: as §1

Danio rerio embryo [28] = assay: EC20 Pigmentation decrease; higher = less potent
Procedure: as §1

Danio rerio embryo [29] = assay: EC20 LMR dark; higher = less potent; details: exposure time: 4 dpf
Procedure: as §1

Danio rerio embryo [30] = assay: EC50 Eye-jaw distance_Decrease; details: exposure time: 4 dpf
Procedure: as §1

Danio rerio embryo [31] = assay: EC10 Otolith-eye distance_Decrease; higher = less potent; details: exposure time: 4 dpf
Procedure: as §1

Danio rerio embryo [32] = details: exposure time: 4 dpf; remark: listed apart in the source
Procedure: as §1

Danio rerio embryo [33] = assay: EC50 Otolith-eye distance_Decrease; details: exposure time: 4 dpf
Procedure: as §1

Danio rerio embryo [34] = assay: EC10 Body length_Decrease; higher = less potent
Procedure: as §1

Danio rerio embryo [35] = assay: EC20 Eye-jaw distance_Decrease; higher = less potent; details: exposure time: 4 dpf
Procedure: as §1

Danio rerio embryo [36] = assay: EC10 LMR dark; higher = less potent; details: exposure time: 4 dpf
Procedure: as §1

Danio rerio embryo [37] = assay: EC10 LMR ligth decrease; higher = less potent; details: exposure time: 4 dpf
Procedure: as §1

Danio rerio embryo [38] = assay: EC10 Eye-jaw distance_Decrease; higher = less potent; details: exposure time: 4 dpf
Procedure: as §1

Danio rerio embryo [39] = assay: EC20 Eye size_Decrease; higher = less potent
Procedure: as §1

Danio rerio embryo [40] = assay: EC10 Pigmentation decrease; higher = less potent
Procedure: as §1

Danio rerio embryo [41] = assay: EC50 Eye size_Decrease
Procedure: as §1

SMILES: C[C@@H]1C[C@H]2[C@@H]3CCC4=CC(=O)C=C[C@]4(C)[C@@]3(F)[C@@H](O)C[C@]2(C)[C@@]1(O)C(=O)CO [Dexamethasone]
- EC20 Yolk sac size Decrease (Danio rerio embryo [1]): 13.1 µM
- EC10 Lack of SB (Danio rerio embryo [2]): 0.944 µM
- EC50 Bladder size Decrease (Danio rerio embryo [3]): 14.3 µM
- EC10 Any effect (Danio rerio embryo [4]; exposure time: 4 dpf): 1.52 µM
- EC50 Any effect (Danio rerio embryo [5]; exposure time: 4 dpf): 113 µM
- EC20 Lack of SB (Danio rerio embryo [6]): 2.7 µM
- EC20 Any effect (Danio rerio embryo [7]; exposure time: 4 dpf): 7.45 µM
- EC50 Pericard size Increase (Danio rerio embryo [8]): 226 µM
- EC10 Pericard size Increase (Danio rerio embryo [9]): 5.95 µM
- EC10 Yolk sac size Decrease (Danio rerio embryo [10]): 2.27 µM
- spontaneous tail coiling frequency (Danio rerio embryo [11]; 2.5 µM): 2.19 ± 1.4
- spontaneous tail coiling frequency (Danio rerio embryo [11]; 25.5 µM): 3.02 ± 0.14
- spontaneous tail coiling frequency (Danio rerio embryo [11]; 63.7 µM): 2.67 ± 0.078
- spontaneous tail coiling frequency (Danio rerio embryo [11]; 127.4 µM): 3.04 ± 0.58
- spontaneous tail coiling frequency (Danio rerio embryo [11]; 254.8 µM): 2.79 ± 1.5
- EC10 Bladder size Decrease (Danio rerio embryo [12]): 1.02 µM
- EC20 Pericard size Increase (Danio rerio embryo [13]): 22.8 µM
- EC50 Yolk sac size Decrease (Danio rerio embryo [14]): 259 µM
- EC50 Lack of SB (Danio rerio embryo [15]): 16.2 µM
- EC20 Bladder size Decrease (Danio rerio embryo [16]): 2.7 µM

SMILES: CC(=O)Nc1ccc(O)cc1 [Acetaminophen]
- EC10 Lack of SB (Danio rerio embryo [2]): 1080 µM
- EC50 Bladder size Decrease (Danio rerio embryo [3]): 1420 µM
- EC20 LMR ligth decrease (Danio rerio embryo [17]): 570 µM
- EC20 Curvature Increase (Danio rerio embryo [18]; exposure time: 2 dpf): 2600 µM
- EC20 Curvature Increase (Danio rerio embryo [18]; exposure time: 4 dpf): 3370 µM
- EC10 Any effect (Danio rerio embryo [4]; exposure time: 2 dpf): 1740 µM
- EC10 Any effect (Danio rerio embryo [4]; exposure time: 4 dpf): 915 µM
- EC50 Any effect (Danio rerio embryo [5]; exposure time: 2 dpf): 2690 µM
- EC50 Any effect (Danio rerio embryo [5]; exposure time: 4 dpf): 1710 µM
- EC50 LMR ligth decrease (Danio rerio embryo [5]; exposure time: 4 dpf): 821 µM
- EC50 STC bell shape (Danio rerio embryo [5]; exposure time: 25 h): 8110 µM
- EC20 Lack of SB (Danio rerio embryo [6]): 1200 µM
- EC20 Body length Decrease (Danio rerio embryo [19]; exposure time: 2 dpf): 3500 µM
- EC20 Body length Decrease (Danio rerio embryo [19]; exposure time: 4 dpf): 3170 µM
- EC10 STC bell shape (Danio rerio embryo [20]): 5590 µM
- EC20 Otolith-eye distance Decrease (Danio rerio embryo [21]): 2080 µM
- EC20 Any effect (Danio rerio embryo [7]; exposure time: 2 dpf): 2050 µM
- EC20 Any effect (Danio rerio embryo [7]; exposure time: 4 dpf): 1150 µM
- EC20 STC bell shape (Danio rerio embryo [22]): 6320 µM
- EC50 Pigmentation decrease (Danio rerio embryo [23]; exposure time: 2 dpf): 1580 µM
- EC50 Pigmentation decrease (Danio rerio embryo [23]; exposure time: 4 dpf): 16300 µM
- EC50 Curvature Increase (Danio rerio embryo [24]; exposure time: 2 dpf): 3760 µM
- EC50 Curvature Increase (Danio rerio embryo [24]; exposure time: 4 dpf): 3830 µM
- EC50 Body length Decrease (Danio rerio embryo [25]; exposure time: 2 dpf): 3990 µM
- EC50 Body length Decrease (Danio rerio embryo [25]; exposure time: 4 dpf): 3940 µM
- EC10 Eye size Decrease (Danio rerio embryo [26]; exposure time: 2 dpf): 1980 µM
- EC10 Eye size Decrease (Danio rerio embryo [26]; exposure time: 4 dpf): 1670 µM
- EC10 Curvature Increase (Danio rerio embryo [27]; exposure time: 2 dpf): 2100 µM
- EC10 Curvature Increase (Danio rerio embryo [27]; exposure time: 4 dpf): 3130 µM
- EC20 Pigmentation decrease (Danio rerio embryo [28]; exposure time: 2 dpf): 1180 µM
- EC20 Pigmentation decrease (Danio rerio embryo [28]; exposure time: 4 dpf): 2730 µM
- EC20 LMR dark (Danio rerio embryo [29]): 500 µM
- EC50 Eye-jaw distance Decrease (Danio rerio embryo [30]): 2830 µM
- EC50 Pericard size Increase (Danio rerio embryo [8]): 3010 µM
- EC10 Pericard size Increase (Danio rerio embryo [9]): 2250 µM
- EC10 Otolith-eye distance Decrease (Danio rerio embryo [31]): 1780 µM
- EC50 LMR dark (Danio rerio embryo [32]): 897 µM
- EC10 Bladder size Decrease (Danio rerio embryo [12]): 1020 µM
- EC50 Otolith-eye distance Decrease (Danio rerio embryo [33]): 2720 µM
- EC10 Body length Decrease (Danio rerio embryo [34]; exposure time: 2 dpf): 3230 µM
- EC10 Body length Decrease (Danio rerio embryo [34]; exposure time: 4 dpf): 2790 µM
- EC20 Eye-jaw distance Decrease (Danio rerio embryo [35]): 2410 µM
- EC10 LMR dark (Danio rerio embryo [36]): 337 µM
- EC20 Pericard size Increase (Danio rerio embryo [13]): 2500 µM
- EC10 LMR ligth decrease (Danio rerio embryo [37]): 467 µM
- EC10 Eye-jaw distance Decrease (Danio rerio embryo [38]): 2200 µM
- EC20 Eye size Decrease (Danio rerio embryo [39]; exposure time: 2 dpf): 2300 µM
- EC20 Eye size Decrease (Danio rerio embryo [39]; exposure time: 4 dpf): 1740 µM
- EC50 Lack of SB (Danio rerio embryo [15]): 1440 µM
- EC10 Pigmentation decrease (Danio rerio embryo [40]; exposure time: 2 dpf): 1010 µM
- EC10 Pigmentation decrease (Danio rerio embryo [40]; exposure time: 4 dpf): 2380 µM
- EC20 Bladder size Decrease (Danio rerio embryo [16]): 1150 µM
- EC50 Eye size Decrease (Danio rerio embryo [41]; exposure time: 2 dpf): 2960 µM
- EC50 Eye size Decrease (Danio rerio embryo [41]; exposure time: 4 dpf): 1850 µM
